Results reported in US20260144739A1, “A SKIN BRIGHTENING COMPOSITION” (Conopco, Inc., d/b/a UNILEVER, priority 2022, published 2026).

Key:
[1] = test system: Co-cultures of HaCat keratinocytes and primary human melanocytes; experiment: Melanin content assay (% melanin reduction) in keratinocyte + melanocyte co-cultures; format: cell-based; conditions: 72 hrs treatment; melanin (405 nm) corrected for cell numbers (MC/Calcein); vs DMSO control; actives in wt % as per example; fermented oil samples diluted 1:40
Description: Various samples containing actives were prepared and the % melanin reduction was measured. The protocol for measuring the melanin reduction is summarized below:
Co-cultures of HaCat keratinocytes and primary human melanocytes were mixed at 40,000 each (1:1 ratio) in 1 ml of a 1:1 mix of their respective culture medium and seeded as such per well, in 12 well plates. After 24 hrs, cultures were treated with various concentrations of the test materials shown in table 1 and left undisturbed for a further period of 72 hrs. Comparative vehicle control was also set up simultaneously. For melanin estimation at the end of the 72 hrs incubation, cell viability was first determined using the Calcein AM method. Briefly, spent media was removed and cells were washed once with 0.4 ml of 1×PBS/well. Fresh 1 μM calcein-AM in PBS buffer was added to each well, including control wells without cells. Plates were covered with aluminium foil and incubated for 30 mins at 37° C. in a CO2 incubator. Calcein fluorescence was measured (excitation at 490 nm and emission at 520 nm) in a TECAN M1000 plate reader. Culture wells were drained and lysed using 1N NaOH containing 10% DMSO and placed for 1 hour at 60° C. in a shaker incubator. 100 μl of the supernatant was transferred to a 384 well plate and melanin was measured in a TECAN plate reader (405 nm filter). […]

[2] = test system: Co-cultures of HaCat keratinocytes and primary human melanocytes; experiment: Cell viability by the Calcein AM method in the co-cultures; format: cell-based; conditions: 4-HR at concentrations higher than 0.0002%, at the cellular level in invitro experiments
Description: Co-cultures of HaCat keratinocytes and primary human melanocytes were mixed at 40,000 each (1:1 ratio) in 1 ml of a 1:1 mix of their respective culture medium and seeded as such per well, in 12 well plates. After 24 hrs, cultures were treated with various concentrations of the test materials shown in table 1 and left undisturbed for a further period of 72 hrs. Comparative vehicle control was also set up simultaneously. For melanin estimation at the end of the 72 hrs incubation, cell viability was first determined using the Calcein AM method. Briefly, spent media was removed and cells were washed once with 0.4 ml of 1×PBS/well. Fresh 1 μM calcein-AM in PBS buffer was added to each well, including control wells without cells. Plates were covered with aluminium foil and incubated for 30 mins at 37° C. in a CO2 incubator. Calcein fluorescence was measured (excitation at 490 nm and emission at 520 nm) in a TECAN M1000 plate reader. Culture wells were drained and lysed using 1N NaOH containing 10% DMSO and placed for 1 hour at 60° C. in a shaker incubator. 100 μl of the supernatant was transferred to a 384 well plate and melanin was measured in a TECAN plate reader (405 nm filter). Melanin content (MC) was expressed after correction for cell numbers (MC/Calcein) and represented as % melanin.

SMILES	% melanin reduction [1]	cell viability [2]
CCCCCCc1ccc(O)cc1O [B]	23%	
CCCCCCc1ccc(O)cc1O [Example 4-HR, 4-hexyl resorcinol]		leads to cell viability problems
CCCCCCc1ccc(O)cc1O [C]	3%	
